According to the SangsterLogP compilation:

Test: method code SF-AS, from DOI: 10.1016/0223-5234(92)90084-e

| Structure (SMILES) | logP | logD (pH 2.0) | also measured |
| --- | --- | --- | --- |
| CC(C(=O)O)c1ccc(-c2nccs2)c(F)c1 (centres undefined) | 3.14 | – | – |
| Cc1cnc(-c2ccc(C(C)C(=O)O)cc2F)s1 (centres undefined) | 3.55 | – | – |
| CCc1csc(-c2ccc(C(C)C(=O)O)cc2)n1 (centres undefined) | 3.75 | – | – |
| Cc1nc(-c2ccc(C(C)C(=O)O)cc2)sc1C (centres undefined) | 3.36 | – | – |
| CC(=O)c1csc(-c2ccc(C(C)C(=O)O)cc2)n1 (centres undefined) | – | 2.65 | – |
| C=CCc1csc(-c2ccc(C(C)C(=O)O)cc2)n1 (centres undefined) | – | 3.4 | – |
| CC(C(=O)O)c1ccc(-c2nccs2)c(Cl)c1 (centres undefined) | 3.39 | – | – |
| Cc1cnc(-c2ccc(C(C)C(=O)O)cc2Cl)s1 (centres undefined) | 3.66 | – | – |
| C=Cc1csc(-c2ccc(C(C)C(=O)O)cc2)n1 (centres undefined) | – | 3.54 | – |
| CCCCc1csc(-c2ccc(C(C)C(=O)O)cc2Cl)n1 (centres undefined) | 4.84 | – | – |
| CC(C(=O)O)c1ccc(-c2nc(C(N)=O)cs2)cc1 (centres undefined) | – | 2.17 | – |
| CC(C(=O)O)c1ccc(-c2nc(CO)cs2)cc1 (centres undefined) | 2.25 | – | – |
| CCc1csc(-c2ccc(C(C)C(=O)O)cc2F)n1 (centres undefined) | – | 3.58 | – |
| CC(C(=O)O)c1ccc(-c2nc(C(F)(F)F)cs2)cc1 (centres undefined) | – | 3.78 | – |
| CCc1cnc(-c2ccc(C(C)C(=O)O)cc2F)s1 (centres undefined) | 4.1 | – | – |
| CC(C(=O)O)c1ccc(-c2nc(C(=O)N(C)C)cs2)cc1 (centres undefined) | – | 2.15 | – |
| Cc1csc(-c2ccc(C(C)C(=O)O)cc2)n1 (centres undefined) | 3.03 | – | – |

| Structure (SMILES) | logP | logD (pH 2.0) | also measured |
| --- | --- | --- | --- |
| CC(C(=O)O)c1ccc(-c2nccs2)c(N)c1 (centres undefined) | – | – | logD (pH 3.4): 2.45 |
| CC(C(=O)O)c1ccc(-c2nc3c(s2)CCCC3)cc1 (centres undefined) | 4.41 | – | – |
| CCCCc1csc(-c2ccc(C(C)C(=O)O)cc2F)n1 (centres undefined) | 4.66 | – | – |
| Cc1csc(-c2ccc(C(C)C(=O)O)cc2Cl)n1 (centres undefined) | 3.65 | – | – |
| CC(C(=O)O)c1ccc(-c2nc(-c3ccccc3)cs2)cc1 (centres undefined) | – | 4.81 | – |
| CCCCc1csc(-c2ccc(C(C)C(=O)O)cc2)n1 (centres undefined) | 4.04 | – | – |
| CC(C(=O)O)c1ccc(-c2nccs2)c([N+](=O)[O-])c1 (centres undefined) | 2.06 | – | – |
| CC(C)c1csc(-c2ccc(C(C)C(=O)O)cc2Cl)n1 (centres undefined) | – | 4.26 | – |
| Cc1nc(-c2ccc(C(C)C(=O)O)cc2Cl)sc1C (centres undefined) | 3.94 | – | – |
| Cc1nc(-c2ccc(C(C)C(=O)O)cc2F)sc1C (centres undefined) | 3.74 | – | – |
| Cc1csc(-c2ccc(C(C)C(=O)O)cc2F)n1 (centres undefined) | 3.52 | – | – |
| CC(C)c1csc(-c2ccc(C(C)C(=O)O)cc2F)n1 (centres undefined) | – | 4.04 | – |
| COCc1csc(-c2ccc(C(C)C(=O)O)cc2)n1 (centres undefined) | 2.78 | – | – |
| CCc1cnc(-c2ccc(C(C)C(=O)O)cc2Cl)s1 (centres undefined) | 4.39 | – | – |
| CCc1nc(-c2ccc(C(C)C(=O)O)cc2)sc1C (centres undefined) | 3.99 | – | – |
| CNC(=O)c1csc(-c2ccc(C(C)C(=O)O)cc2)n1 (centres undefined) | – | 2.45 | – |
| COc1cc(C(C)C(=O)O)ccc1-c1nccs1 (centres undefined) | 2.47 | – | – |
